Key:
[1] = system: carrageenin-induced paw oedema; conditions: rat, thesis (Kocialski); cited from earlier work
[2] = French Pat. 1.397.537; cited from earlier work
blood-sugar levels = conditions: rat, thesis (Kocialski); cited from earlier work
[3] = system: recovery of learned memories; experiment: Recovery of learned memories after electroshock (aquatic maze crossing); type: in vivo, rat
Source text: Effects of tetrahydroalstonine on the recovery of learned memories on rats.
Tetrahydroalstonine has been tested on lots of rats in order to determine how fast it allows the recovery of learned memories after supramaximal electroshock in comparision with Vincamine and Papaverine. These last compounds are known to be active on the circulation namely as vasodilating agents.
In this test, as described by C. Giurgea (J. Pharmacol. (Paris) 3 17 (1972)), the rats are submitted to a submaximal electroshock which causes a spatio-temporal desorientation. This syndrom is evidenced by the difficulties the tested animals encountered for crossing over a maze filled with cold water without any error, after they have been submitted to the electroshock. The rats have been previously trained to swimm through this maze and the training has been renewed four times for 2 days.
The electric shock was delivered by means of a Neurovar apparatus (ALVAR Electronics) the third day. 20 Minutes after the electro shock, each lot of rats is tested and the time for crossing over the maze is determined. Immediately after, the rats received the compound to be tested by intra oesophageal tubing. Each lot is then experienced four times, 1, 2, 3, and 4 hours after the electroshock.
The score of performances of each individual is recorded and every error during the crossing over noticed.
The compounds to be tested (papaverine, vincamine and tetrahydroalstonine) are given to the animals, suspended in an aqueous solution of carboxymethylcellulose and sorbitan monooleate.
Papaverine and vincamine were administered at dosis ranging from 1 to 20 mg/kg. Tetrahydroalstonine was administered at a dosis of 0.6 mg/kg, 6 mg/kg and 60 mg/kg.
A lot of rats received only the aqueous solvent under the same volume (0.5 ml/100 g animal) as controls.
Therein are reported for each lot of rats the number of errors and the average time for crossing over the maze during the 5 tests performed after the animals have been subjected to the electroshock.
The treatment has been given 20 mn after the electroshock, immediately
after the first crossing over

[4] = system: sleep after injection of Nembutal; experiment: Time of inducing the sleep after injection of Nembutal; type: in vivo; conditions: even at low dosages
mice (Rockland strain) = experiment: Acute toxicity, oral; conditions: mouse, in vivo
Method: (§1) The search of an acute toxicity has been carried out on lots of mice (Rockland strain) weighing from […]. The mice received orally increasing dosis of tetrahydroalstonine suspended in an aqueous solvent.
(§2) The animals are kept under survey for 7 days and the deaths are recorded. The average lethal dosis has been graphically calculated according to the method of Wilcoxon and Litchfield. A lot of mice received only the solvent as controls.

in vivo = conditions: mouse, po
Method: as §1, §2

arterial blood pressure = conditions: dog, in vivo, 100 mg/kg
Method: This test has been carried out on lots of five dogs weighing from 16 to 20 kg. The dogs have been previously anaesthetized with chloralose by intravenous way and the intravenous injection of 50 mg heparine for each dog is renewed every 150 minutes.
The average arterial blood pressure is determined by dissection of a brachial artery and insertion of a catheter connected with a Statham P23 Db transducer.
The various parameters have been recorded by means on a polygraph and the hemodynamic survey has been afforded with two tracks-cathodic tubes.

[5] = system: Hexobarbital-induced sleeping time; experiment: Hexobarbital-induced sleeping time; type: in vivo; conditions: rodents, high dosages
[6] = 0,6 mg/kg P.O., 20 minutes after electroshock (before treatment)
[7] = 6 mg/kg P.O., 20 minutes after electroshock (before treatment)
[8] = 60 mg/kg P.O., 20 minutes after electroshock (before treatment)

In the case of `COC(=O)C1=CO[C@@H](C)[C@@H]2CN3CCc4c([nH]c5ccccc45)[C@@H]3C[C@H]12` [Tetrahydroalstonine], the “effect on carrageenin-induced paw oedema” value [1] is listed as “negative”, the adrenolytic activity [2] is listed as “adrenolytic agent” and the “effect on blood-sugar levels” value (blood-sugar levels) is listed as “negative”. For the same molecule, the “a = variation of average number of errors as regard as the controls” value ([3]; 0,6 mg/kg P.O., 20 minutes (before treatment)) was “-”, the “E = average number of errors” value [3, 6] was 12,3 and the “T = average time for crossing over” value [3, 6] was 124,2 seconds. The “E = average number of errors” value ([3]; 0,6 mg/kg P.O., 60 minutes) was 8,4, the “T = average time for crossing over” value ([3]; 0,6 mg/kg P.O., 60 minutes) was 85,2 seconds and the “a = variation of average number of errors as regard as the controls” value ([3]; 0,6 mg/kg P.O., 60 minutes) was “-”. The “E = average number of errors” value ([3]; 0,6 mg/kg P.O., 120 minutes) was 6,2, the “T = average time for crossing over” value ([3]; 0,6 mg/kg P.O., 120 minutes) was 66,4 seconds and the “a = variation of average number of errors as regard as the controls” value ([3]; 0,6 mg/kg P.O., 120 minutes) was “-”. For the same molecule, the “E = average number of errors” value ([3]; 0,6 mg/kg P.O., 180 minutes) was 3,1, the “T = average time for crossing over” value ([3]; 0,6 mg/kg P.O., 180 minutes) was 37,9 seconds and the “a = variation of average number of errors as regard as the controls” value ([3]; 0,6 mg/kg P.O., 180 minutes) was “-”. For the same molecule, the “b = statistical value (student's test), number of errors” value (shortened to “b = statistical value … of errors”) ([3]; 0,6 mg/kg P.O., 180 minutes) was 0,01, the “E = average number of errors” value ([3]; 0,6 mg/kg P.O., 240 minutes) was 2,0 and the “T = average time for crossing over” value ([3]; 0,6 mg/kg P.O., 240 minutes) was 29,4 seconds. The “a = variation of average number of errors as regard as the controls” value ([3]; 0,6 mg/kg P.O., 240 minutes) was “-”, the “b = statistical value … of errors” value ([3]; 0,6 mg/kg P.O., 240 minutes) was 0,0005 and the “potency compared with papaverine or vincamine” value ([3]; 0.6 mg/kg) was “competes with that of 20 mg/kg of papaverine or vincamine”. The “time after which the statistically significant decrease of the number of mistakes appeared” value ([3]; 0.6 mg/kg) was 180 mn, the “start of the improving effect” value ([3]; 6 mg/kg) was 60 mn and the “time after which the statistically significant decrease of the number of mistakes appeared” value ([3]; 6 mg/kg) was 120 mn. The “a = variation of average number of errors as regard as the controls” value ([3]; 6 mg/kg P.O., 20 minutes (before treatment)) was “-”, the “E = average number of errors” value [3, 7] was 12,3 and the “T = average time for crossing over” value [3, 7] was 133,5 seconds. The “E = average number of errors” value ([3]; 6 mg/kg P.O., 60 minutes) was 6,9, the “T = average time for crossing over” value ([3]; 6 mg/kg P.O., 60 minutes) was 75,1 seconds and the “a = variation of average number of errors as regard as the controls” value ([3]; 6 mg/kg P.O., 60 minutes) was “-”. For the same molecule, the “E = average number of errors” value ([3]; 6 mg/kg P.O., 120 minutes) was 4,4, the “T = average time for crossing over” value ([3]; 6 mg/kg P.O., 120 minutes) was 52,5 seconds and the “a = variation of average number of errors as regard as the controls” value ([3]; 6 mg/kg P.O., 120 minutes) was “-”. The “b = statistical value … of errors” value ([3]; 6 mg/kg P.O., 120 minutes) was 0,05, the “E = average number of errors” value ([3]; 6 mg/kg P.O., 180 minutes) was 3,6 and the “T = average time for crossing over” value ([3]; 6 mg/kg P.O., 180 minutes) was 54,6 seconds. The “a = variation of average number of errors as regard as the controls” value ([3]; 6 mg/kg P.O., 180 minutes) was “-”, the “b = statistical value … of errors” value ([3]; 6 mg/kg P.O., 180 minutes) was 0,05 and the “E = average number of errors” value ([3]; 6 mg/kg P.O., 240 minutes) was 2,5. The “T = average time for crossing over” value ([3]; 6 mg/kg P.O., 240 minutes) was 23,8 seconds, the “a = variation of average number of errors as regard as the controls” value ([3]; 6 mg/kg P.O., 240 minutes) was “-” and the “b = statistical value … of errors” value ([3]; 6 mg/kg P.O., 240 minutes) was 0,005. The “time after which the statistically significant decrease of the number of mistakes appeared” value ([3]; 60 mg/kg) was 60 mn, the “a = variation of average number of errors as regard as the controls” value ([3]; 60 mg/kg P.O., 20 minutes (before treatment)) was “-” and the “E = average number of errors” value [3, 8] was 10,6. For the same molecule, the “T = average time for crossing over” value [3, 8] was 135,0 seconds, the “E = average number of errors” value ([3]; 60 mg/kg P.O., 60 minutes) was 5,8 and the “T = average time for crossing over” value ([3]; 60 mg/kg P.O., 60 minutes) was 62,2 seconds. The “a = variation of average number of errors as regard as the controls” value ([3]; 60 mg/kg P.O., 60 minutes) was “-”, the “b = statistical value … of errors” value ([3]; 60 mg/kg P.O., 60 minutes) was 0,025 and the “E = average number of errors” value ([3]; 60 mg/kg P.O., 120 minutes) was 2,7. The “T = average time for crossing over” value ([3]; 60 mg/kg P.O., 120 minutes) was 28,8 seconds, the “a = variation of average number of errors as regard as the controls” value ([3]; 60 mg/kg P.O., 120 minutes) was “-” and the “b = statistical value … of errors” value ([3]; 60 mg/kg P.O., 120 minutes) was 0,005. The “E = average number of errors” value ([3]; 60 mg/kg P.O., 180 minutes) was 1,6, the “T = average time for crossing over” value ([3]; 60 mg/kg P.O., 180 minutes) was 18,8 seconds and the “a = variation of average number of errors as regard as the controls” value ([3]; 60 mg/kg P.O., 180 minutes) was “-”. The “b = statistical value … of errors” value ([3]; 60 mg/kg P.O., 180 minutes) was 0,0005, the “E = average number of errors” value ([3]; 60 mg/kg P.O., 240 minutes) was 1,8 and the “T = average time for crossing over” value ([3]; 60 mg/kg P.O., 240 minutes) was 20,1 seconds. For the same molecule, the “a = variation of average number of errors as regard as the controls” value ([3]; 60 mg/kg P.O., 240 minutes) was “-”, the “b = statistical value … of errors” value ([3]; 60 mg/kg P.O., 240 minutes) was 0,0005 and the “dose dependence of the effect on number of mistakes” value ([3]; 0.6, 6 and 60 mg/kg) was “closely related to the used dosis”. For the same molecule, the “time after the convulsive shock at which recovery of the memory is complete” value ([3]; highest tested dosage (60 mg/kg)) was 120 mn, the “activity relative to papaverine and vincamine” value ([3]; rat, in vivo) was “more active” and the “effect on the recovery of learned memory” value ([3]; rat, in vivo) was “improving effect”. For the same molecule, the “time of inducing the sleep after injection of Nembutal” value [4] was “increase”, the toxicity (mice (Rockland strain)) was “practically devoid of toxic effect” and the LD50 at 168 h (in vivo) was > 3000 mg/kg. The “noticeable decrease of the blood arterial pressure (incidence)” value (arterial blood pressure) was “one case out of five” and the Hexobarbital-induced sleeping time [5] was “increased”.
